Reference: patent US20230218754A1, “PHARMACEUTICAL COMPOSITIONS WITH ANTI-RANKL ANTIBODIES, CALCIUM AND VITAMIN D” (priority 2016, published 2023)
Values joined by “and” are separate entries in the source; they are usually repeats but may differ in a detail not shown here. Equal values may be shown once.

Key:
[1] = background statement; cited from earlier work
[2] = serum calcium level in patients under denosumab plus calcium and vitamin D3; assay type: in vivo, human
Experimental: The following data from an oncological patient (prostate cancer) in Table 5 show the serum levels of calcium and vitamin D3 in administration of 120 mg of denosumab (anti-RANKL antibody, Xgeva) every 4 weeks and the oral administration of 500 mg of calcium daily and 1000 IU of vitamin D3 daily.
In Table 5, the patient received 120 mg of denosumab every 4 weeks and 500 mg of calcium and 1000 IU of vitamin D3:
The following data from osteoporosis patients in Table 6 show the serum values of calcium and vitamin D3 in administration of 60 mg of anti-RANKL antibody/denosumab (Prolia) every 6 months and the oral administration of 500 mg of calcium daily and 1000 IU of vitamin D3 daily.
In Table 6, the osteoporosis patients received 60 mg of denosumab every 6 months, 500 mg of calcium daily, and 1000 IU of vitamin D3, also daily: […]

[3] = chair-rising test (standing up test) in osteoporosis patients; assay type: in vivo, human; conditions: 60 mg denosumab (Prolia) + 500 mg calcium + 1000 IE vitamin D3
Experimental: The so-called “chair-rising test” (standing up test) was carried out in 3 patients.
The chair-rising test (standing up test) allows a determination to made concerning the strength and falling risk of the test person. The test person is asked to stand up and sit back down five times as quickly as possible with his/her arms folded over his/her chest and without using them from a chair of ordinary height (approximately 46 cm seat height). If the patient is not capable of doing this, the number of successful completions are counted rather than the seconds. If the patient takes longer than 10-11 seconds, it must be assumed that he/she is at increased risk of falling.
The improvement is given in the right column in %.

[4] = 25(OH) vitamin D3 serum concentration under vitamin D maintenance dose in patients with vitamin D deficiency; assay type: in vivo, human; conditions: maintenance dose of 400 IU of vitamin D daily
[5] = as above; assay type: in vivo, human
Excerpt: Vitamin D deficiency is a common diagnosis in osteology practice. […] The maintenance dose was 1000 IU of vitamin D daily.

Molecule: C=C1/C(=C\C=C2/CCC[C@]3(C)[C@@H]([C@H](C)CCCC(C)(C)O)CC[C@@H]23)C[C@@H](O)C[C@@H]1O [calcitriol, 1α,25-dihydroxycholecalciferol]
- time to maximum serum concentration after intake [1]: three to six

Molecule: denosumab: anti-RANKL antibody approved as a medicinal preparation; marketed by Amgen as Prolia (60 mg) and Xgeva (120 mg)
- Calcium (serum) ([2]; oncological patient (prostate cancer), 120 mg denosumab (Xgeva) every 4 weeks + 500 mg calcium and 1000 IU vitamin D3 daily, after 13 weeks): 2.11 mmol/L
- Calcium (serum) ([2]; oncological patient (prostate cancer), 120 mg denosumab (Xgeva) every 4 weeks + 500 mg calcium and 1000 IU vitamin D3 daily, after 26 weeks): 2.12 mmol/L
- Calcium (serum) ([2]; osteoporosis patients, 60 mg denosumab (Prolia) every 6 months + 500 mg calcium and 1000 IU vitamin D3 daily, after 13 weeks): 2.34 mmol/L and 2.32 mmol/L and 2.3 mmol/L and 2.37 mmol/L
- Calcium (serum) ([2]; osteoporosis patients, 60 mg denosumab (Prolia) every 6 months + 500 mg calcium and 1000 IU vitamin D3 daily, after 26 weeks): 2.32 mmol/L and 2.45 mmol/L
- Chair Rising time repeated 6 months later ([3]; osteoporosis patients, 6 months after beginning therapy): 8 s and 10 s
- reduction of the risk of falling ([3]; three osteoporosis patients, 6 months): 11-29%

Molecule: vitamin D
- maintaining the vitamin D concentration at the standard level [4]: not sufficient
- 25(OH) vitamin D3 serum concentration at maintenance dose of 1000 IU of vitamin D daily ([5]; individual female patients with initial vitamin D deficiency, 1000 IU vitamin D daily): 29.2 ng/mL and 30.4 ng/mL and 28.8 ng/mL and 23.7 ng/mL and 23.2 ng/mL and 30.5 ng/mL and 25.5 ng/mL and 23.4 ng/mL
- maintaining the vitamin D level in the normal range ([5]; maintenance dose of 1000 IU of vitamin D daily): suitable
